Data: patent US8592431B2, “Fused ring compound and use thereof” (Takeda Pharmaceutical Company Limited, priority 2009, dated 2013)

How the values were obtained:
human AT1 receptor = human AT1 receptor (Homo sapiens (Human), UniProt P30556); test: AT1 receptor antagonistic activity: [125I]-angiotensin II binding assay with AT1 membrane; details: 22.5 pM [125I]-angiotensin II, human AT1 receptor-expressing CHO-K1 membrane, 1 hr room temperature
Procedure: Evaluation of AT1 Receptor Antagonistic Activity
(1) Preparation of Human AT1 Receptor-Expressing CHO-K1 Cellular Membrane Fraction
CHO-K1 cell (RIKEN, Japan) capable of stable expression of human AT1 receptor was cultured, recovered, suspended in homogenize buffer (10 mM NaHCO3 (pH 7.4), 5 mM EDTA, 1× Complete EDTA free) [manufactured by Roche, Switzerland], and homogenized. The homogenate was centrifuged at low-speed (900×g, 10 min, 4° C.), and the supernatant was recovered and ultracentrifuged (90,000×g, 1 hr, 4° C.). The supernatant was discarded, and the pellets were resuspended in suspension buffer (50 mM Tris (pH 7.4), 1 mM EDTA, 1× Complete EDTA free).
(2) Evaluation of AT1 Receptor Antagonistic Activity
(9 μg) in the presence of AT1 membrane and test compound in 100 μL (total reaction volume) of reaction buffer (50 mM Tris (pH 7.4), 10 mM MgCl2 supplemented or not supplemented with 0.3 mg/mL fatty acid-free bovine serum albumin [manufactured by Wako Pure Chemical Industries, Ltd., Japan]). The reaction mixture was incubated in 96 well polypropylene plate for 1 hr at room temperature, and the reaction was quenched by rapid filtration (96 well cell harvester) through a GF/C filter treated with wash buffer (50 mM Tris (pH 7.4)). Subsequently, the filter was washed 5 times with 0.3 mL of ice-cooled wash buffer. […] Total binding was measured in the presence of 1% DMSO and nonspecific binding was measured in the presence of 1 μM Candesartan.

human PPARγ = human PPARγ (Homo sapiens (Human), UniProt P37231); test: PPARγ agonistic activity: luciferase reporter assay in PPARγ:RXRα:4ERPP/CHO-K1 cells; format: cell-based; details: test compound 10^−6 M; control compound X (1 μM) taken as 100%
Sequence of human PPARγ (P37231 29-505): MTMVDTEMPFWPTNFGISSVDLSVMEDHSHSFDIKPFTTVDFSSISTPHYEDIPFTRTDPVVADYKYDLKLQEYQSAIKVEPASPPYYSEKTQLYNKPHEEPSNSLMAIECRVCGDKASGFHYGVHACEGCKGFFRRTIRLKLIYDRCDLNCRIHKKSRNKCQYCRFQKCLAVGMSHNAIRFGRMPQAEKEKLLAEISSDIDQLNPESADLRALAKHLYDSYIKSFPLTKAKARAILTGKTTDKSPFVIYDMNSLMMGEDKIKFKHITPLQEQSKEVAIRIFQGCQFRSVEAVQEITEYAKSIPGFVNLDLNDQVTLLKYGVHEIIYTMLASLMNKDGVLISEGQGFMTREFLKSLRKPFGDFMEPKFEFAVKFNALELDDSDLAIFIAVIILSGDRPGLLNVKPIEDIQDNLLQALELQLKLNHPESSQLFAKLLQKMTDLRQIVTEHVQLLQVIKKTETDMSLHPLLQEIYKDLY
Sequence of human PPARγ (P19793 whole entry partner): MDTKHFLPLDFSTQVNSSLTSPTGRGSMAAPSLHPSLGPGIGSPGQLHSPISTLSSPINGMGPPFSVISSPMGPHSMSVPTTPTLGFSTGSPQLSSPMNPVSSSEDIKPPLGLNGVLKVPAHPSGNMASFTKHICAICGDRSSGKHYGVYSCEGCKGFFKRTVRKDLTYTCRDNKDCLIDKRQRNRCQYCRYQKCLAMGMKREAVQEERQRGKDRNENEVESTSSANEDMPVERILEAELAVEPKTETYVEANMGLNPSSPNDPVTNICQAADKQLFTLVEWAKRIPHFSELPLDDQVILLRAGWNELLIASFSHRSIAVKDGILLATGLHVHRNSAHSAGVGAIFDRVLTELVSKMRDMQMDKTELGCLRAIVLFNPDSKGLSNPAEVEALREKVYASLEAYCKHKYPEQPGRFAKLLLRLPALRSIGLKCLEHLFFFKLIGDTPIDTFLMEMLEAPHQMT
Text: Evaluation of PPARγ Agonistic Activity
(5) Introduction of Human PPARγ- and RXRα-Expression Plasmid and Reporter Plasmid into Cho-K1 Cell as Well as Establishment of Expressed Cell
A CHO-K1 cell cultured in a 150 cm^2 cell culture flask [manufactured by Corning Costar Corporation, USA] comprising Ham's F12 medium [manufactured by INVITROGEN, USA] supplemented with 10% fetal bovine serum [manufactured by INVITROGEN, USA] was taken off by treating with 0.5 g/L trypsin-0.2 g/L EDTA (ethylenediamine tetraacetate) [manufactured by Life Technologies, Inc., USA], and then the cell was washed with PBS (Phosphate-buffered saline) [manufactured by INVITROGEN, USA], centrifuged (1000 rpm, 5 minutes) and suspended in PBS. Subsequently, DNA was introduced into the cell under the conditions shown below using GENE PULSER [manufactured by Bio-Rad Laboratories, USA].
Namely, to a cuvette having a 0.4 cm gap were added 8×10^6 cells and 10 μg of plasmid pVgRXR2-hPPARγ obtained in the above-mentioned (4) and 10 μg of reporter plasmid pGL3-4ERPP-TK neo obtained in the above-mentioned (3), which was subjected to electroporation at the voltage of 0.25 kV under the capacitance of 960 μF. Subsequently, the cell was transferred into a F12 medium comprising 10% fetal bovine serum and cultured for 24 hours, and then the cell was taken off again and centrifuged. Then, the pellet was suspended in Ham's F12 medium comprising 10% fetal bovine serum supplemented with 500 μg/ml of Geneticin [manufactured by INVITROGEN, USA] and 250 μg/ml of Zeocin [manufactured by INVITROGEN, USA]. The obtained suspension was diluted to the density of 10^4 cells/ml and inoculated in a 96-well plate [manufactured by Corning Costar Corporation, USA], which was cultured in a CO2 gas incubator at 37° C., whereby obtaining a Geneticin- and Zeocin-resistant transformant.
Subsequently, after the transformed cell line thus obtained was cultured in a 24-well plate [manufactured by Corning Costar Corporation, USA], a cell line in which expression of the luciferase was induced, i.e., PPARγ:RXRα:4ERPP/CHO-K1 cell was selected by the addition of 10 μM pioglitazone hydrochloride.
(6) Evaluation of PPARγ Agonistic Activity
PPARγ:RXRα:4ERPP/CHO-K1 cells obtained in the above-mentioned (5) were cultured in F12 medium [manufactured by INVITROGEN, USA] containing 10% fetal bovine serum [manufactured by MOREGATE, Australia], seeded in a 96 well half-area white plate [manufactured by Corning Coster Corporation, USA] at 5×10^3 cells/well, and cultured in a CO2 incubator at 37° C. overnight.
Then, the medium was removed from the 96 well half-area white plate, hamF12 medium containing 0.1% fatty acid-free bovine serum albumin (BSA) (45 μl) and a test compound (5 μl) were added, and the mixture was cultured in the CO2 incubator at 37° C. for 1 day. After removing the medium, Picagene 7.5 [manufactured by Dai Nippon Inki, Japan] (20 μl) diluted 2-fold with HBSS (HANKS' BALANCED SALT SOLUTION) [manufactured by BIO […], USA] was added, and the mixture was stirred. Using 1420 ARVO Multilabel Counter [manufactured by PerkinElmer, USA], luciferase activity was measured.
The percentage (%) was calculated from the luciferase activity of the test compound when the luciferase activity of the control compound (compound X: 5-[3-(4-{[2-(2-furyl)-5-methyl-1,3-oxazol-4-yl]methoxy}-3-methoxyphenyl)propyl]-1,3-oxazolidine-2,4-dione) (1 μM) was taken as 100% and the luciferase activity of the test compound non-administration group was taken as 0%.

Male SHRs = test: Antihypertensive effect: mean blood pressure in SHRs after oral administration; format: in vivo, rat; details: SHR, during 24 hours after administration
Procedure: Male SHRs (28-40 weeks old, Japan SLC, Inc., Japan) were anesthetized with sodium pentobarbital (50 mg/kg, i.p.). The left femoral artery was cannulated with a polyethylene catheter filled with saline comprising heparin (200 U/mL). The catheter was exteriorized at the back of the neck and each SHR was individually housed in a cage and left two or four days to recover. The mean blood pressure (MBP) was obtained from the systemic blood pressure which was monitored from the femoral artery using a pressure transducer connected to a polygraph system (Nihon Kohden Corporation). The heart rate was measured from the blood pressure pulse intervals. The rats which had MBP over 150 mmHg were used for the experiment. When the blood pressure had stabilized, vehicle (0.5 w/v % methylcellulose) or compounds were orally administered. All compounds were suspended in 0.5 w/v % methylcellulose and orally administered at a volume of 2 mL/kg. The MBP was measured during 24 hours after the administration.

Male Wistar fatty rats = test: Plasma triglyceride and glucose lowering in Wistar fatty rats, oral, once a day for 2 weeks; format: in vivo, rat; details: versus vehicle group
Procedure: Male 25-31 weeks-old Wistar fatty rats (Takeda Pharmaceutical Company) were divided to each group with equalization of plasma levels of triglyceride, glucose and body weight in fed condition. The groups of rats were treated with vehicle (0.5 w/v % methylcellulose) or compounds. All compounds were suspended in 0.5 w/v % methylcellulose and orally administered at a volume of 2 mL/kg, once a day for 2 weeks. The next day of the final administration, blood was collected from the tail vein to measure plasma parameters. Heparin was used as an anticoagulant. Plasma levels of triglyceride and glucose were measured enzymatically using Hitachi Autoanalyser 9000. The inhibition rates from vehicle treatment group were calculated for each compound after the treatment for 2 weeks.

[1] = 10 mg/kg once a day for 2 weeks
[2] = 30 mg/kg once a day for 2 weeks

Sequence of human AT1 receptor (P30556 whole entry): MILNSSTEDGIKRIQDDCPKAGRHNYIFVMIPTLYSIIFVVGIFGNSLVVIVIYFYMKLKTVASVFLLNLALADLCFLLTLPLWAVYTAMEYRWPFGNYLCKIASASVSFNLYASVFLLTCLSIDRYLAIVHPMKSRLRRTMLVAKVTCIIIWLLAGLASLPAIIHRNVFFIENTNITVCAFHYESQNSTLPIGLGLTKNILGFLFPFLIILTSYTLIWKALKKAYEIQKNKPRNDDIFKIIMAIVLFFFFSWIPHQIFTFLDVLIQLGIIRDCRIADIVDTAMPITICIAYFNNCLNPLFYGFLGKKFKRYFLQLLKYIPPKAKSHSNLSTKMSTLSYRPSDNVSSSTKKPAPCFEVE

SMILES | IC50 (human AT1 receptor) | Inhibition rate of plasma glucose (%) (Male Wistar fatty rats; 3 mg/kg once a day for 2 weeks) | Inhibition rate of plasma triglyceride (%) (Male Wistar fatty rats; 3 mg/kg once a day for 2 weeks) | Inhibition rate of plasma glucose (%) (Male Wistar fatty rats; [1]) | Inhibition rate of plasma triglyceride (%) (Male Wistar fatty rats; [1]) | also measured
CCCc1c(Cc2ccc(-c3ccccc3-c3noc(=O)[nH]3)cc2F)c(=O)n([C@H]2CC[C@H](OC(C)C(C)(C)O)CC2)c2ncnn12 (single isomer, unassigned) [Example 248, 6-{[3-fluoro-2′-(5-oxo-4,5-dihydro-1,2,4-oxadiazol-3-yl)biphenyl-4-yl]methyl}-4-[trans-4-(2-hydroxy-1,2-dimethylpropoxy)cyclohexyl]-7-propyl[1,2,4]triazolo[1,5-a]pyrimidin-5(4H)-one] | 2.2 nM |  |  |  |  | PPARγ agonistic activity (activation % (10^−6 M)) (human PPARγ): 19%
CCCc1c(Cc2ccc(-c3ccccc3-c3nc(=O)o[nH]3)cc2)c(=O)n(C2CCC(OCC(C)O)CC2)c2ccnn12 (single isomer, unassigned) [Example 440, 4-[trans-4-(2-hydroxypropoxy)cyclohexyl]-6-{[2′-(5-oxo-4,5-dihydro-1,2,4-oxadiazol-3-yl)biphenyl-4-yl]methyl}-7-propylpyrazolo[1,5-a]pyrimidin-5(4H)-one (Optically Active Form, Retention Time: Short)] | 1.8 nM |  |  |  |  | 
CCCc1c(Cc2ccc(-c3ccccc3-c3noc(=O)[nH]3)cc2)c(=O)n(C2CCC(OCC(C)O)CC2)c2ccnn12 (single isomer, unassigned) [Example 441, 4-[trans-4-(2-hydroxypropoxy)cyclohexyl]-6-{[2′-(5-oxo-4,5-dihydro-1,2,4-oxadiazol-3-yl)biphenyl-4-yl]methyl}-7-propylpyrazolo[1,5-a]pyrimidin-5(4H)-one (Optically Active Form, Retention Time: Long)] | 1.6 nM |  |  |  |  | PPARγ agonistic activity (activation % (10^−6 M)) (human PPARγ): 19%
CCCc1c(Cc2ccc(-c3ccccc3-c3noc(=O)[nH]3)cc2F)c(=O)n(C2CCC(OC(C)C(C)(C)O)CC2)c2ncnn12 (single isomer, unassigned; (+)) [Example 458, hydrate] |  | −0.2% | 33.5% | 6.9% | 39.0% | Maximum MBP reduction (mmHg) (Male SHRs; dose 30 mg/kg): 70 mmHg; Inhibition rate of plasma glucose (%) (Male Wistar fatty rats; [2]): 43.3%; Inhibition rate of plasma triglyceride (%) (Male Wistar fatty rats; [2]): 59.2%
CCCc1c(Cc2ccc(-c3ccccc3C3=NOC(O)N3)cc2F)c(=O)n(C2CCC(OC(C)C(C)(C)O)CC2)c2ncnn12.[K+] (single isomer, unassigned; (-)) [Example 459, (−)-6-{[3-fluoro-2′-(5-oxo-4,5-dihydro-1,2,4-oxadiazol-3-yl)biphenyl-4-yl]methyl}-4-[trans-4-(2-hydroxy-1,2-dimethylpropoxy)cyclohexyl]-7-propyl[1,2,4]triazolo[1,5-a]pyrimidin-5(4H)-one potassium salt (Retention Time: Long)] |  |  |  |  |  | Maximum MBP reduction (mmHg) (Male SHRs; dose 3 mg/kg): 64 mmHg
CCCc1c(Cc2ccc(-c3ccccc3-c3noc(=O)[nH]3)cc2)c(=O)n([C@H]2CC[C@H](OCC(C)(C)O)CC2)c2ccnn12 [Example 413, 4-[trans-4-(2-Hydroxy-2-methylpropoxy)cyclohexyl]-6-{[2′-(5-oxo-4,5-dihydro-1,2,4-oxadiazol-3-yl)biphenyl-4-yl]methyl}-7-propylpyrazolo[1,5-a]pyrimidin-5(4H)-one] | 1.6 nM | 6.5% | 12.0% | 19.1% | 21.5% | Maximum MBP reduction (mmHg) (Male SHRs; dose 10 mg/kg): 79 mmHg; Inhibition rate of plasma glucose (%) (Male Wistar fatty rats; [2]): 53.3%; Inhibition rate of plasma triglyceride (%) (Male Wistar fatty rats; [2]): 46.0%
CCCc1c(Cc2ccc(-c3ccccc3-c3noc(=O)[nH]3)cc2)c(=O)n([C@H]2CC[C@H](OCC(C)(C)O)CC2)c2ccnn12.[K] [Example 415, 4-[trans-4-(2-hydroxy-2-methylpropoxy)cyclohexyl]-6-{[2′-(5-oxo-4,5-dihydro-1,2,4-oxadiazol-3-yl)biphenyl-4-yl]methyl}-7-propylpyrazolo[1,5-a]pyrimidin-5(4H)-one potassium salt] |  | 25.1% | 38.1% | 54.3% | 57.7% | Maximum MBP reduction (mmHg) (Male SHRs; dose 3 mg/kg): 63 mmHg
